Columns and labels:
[1] = test system: S. aureus Newman; assay: Bliss interaction score (quartile over a dose matrix) (fitness difference); higher = more antagonism (negative = synergy)
Procedure, shortened: (§1)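 The Bliss score is observed minus expected fitness under the product model, reported as quartiles over technical, biological and donor/recipient replicates. Fitness is the OD595 at entry into stationary phase divided by the plate's robust no-drug mean and capped at 1. Single-drug fitness was inferred from combination data.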

[2] = test system: B. subtilis 168; assay: as above
Procedure, shortened: as §1

[3] = test system: S. aureus DSM 20231; assay: as above
Procedure, shortened: as §1

[4] = test system: S. pneumoniae D39V; assay: as above
Procedure, shortened: as §1

[5] = test system: S. aureus Newman; assay: fitness (endpoint OD595 vs no drug) (fraction); higher = more growth
Procedure, shortened: (§2)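 Fitness is computed from the optical density at which cultures reach stationary phase, divided by the robust mean of no-drug control wells. Any value above 1 is set to 1. Cultures started at OD595 0.01 in 384-well plates with TSB, LB Lennox or CY at 37 °C, and OD595 was read every 30 min for 14 h against a first-reading background.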

[6] = test system: B. subtilis 168; assay: as above
Procedure, shortened: as §2

[7] = test system: S. pneumoniae D39V; assay: as above
Procedure, shortened: as §2
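Wherever Bliss interaction score (quartile over a dose matrix) is given: first quartile when negative (synergy) and third quartile when positive (antagonism).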

O=C(O)c1cn(C2CC2)c2cc(N3CCNCC3)c(F)cc2c1=O [Ciprofloxacin] + COc1c(N2C[C@@H]3CCCN[C@@H]3C2)c(F)cc2c(=O)c(C(=O)O)cn(C3CC3)c12 [Moxifloxacin]
Conditions | Bliss interaction score
[1] | -0.2
[2] | 0.026
[3] | -0.117
[4] | -0.0855

Conditions | fitness
[5], first compound 0.0375 µg/mL, partner 0.0075 µg/mL | 0.579
[5], first compound 0.0375 µg/mL, partner 0.015 µg/mL | 0.414
[5], first compound 0.0375 µg/mL, partner 0.03 µg/mL | 0.0123
[5], first compound 0.075 µg/mL, partner 0.0075 µg/mL | 0.322
[5], first compound 0.075 µg/mL, partner 0.015 µg/mL | 0.0421
[5], first compound 0.075 µg/mL, partner 0.03 µg/mL | 0.0176
[5], first compound 0.15 µg/mL, partner 0.0075 µg/mL | 0.0344
[5], first compound 0.15 µg/mL, partner 0.015 µg/mL | 0.03
[5], first compound 0.15 µg/mL, partner 0.03 µg/mL | 0.0119
[6], first compound 0.0098 µg/mL, partner 0.0625 µg/mL | 0.051
[6], first compound 0.0098 µg/mL, partner 0.125 µg/mL | 0.055
[6], first compound 0.0098 µg/mL, partner 2 µg/mL | 0.0402
[6], first compound 0.0098 µg/mL, partner 4 µg/mL | 0.0314
[6], first compound 0.0098 µg/mL, partner 8 µg/mL | 0.0305
[6], first compound 0.0195 µg/mL, partner 0.0312 µg/mL | 0.0426
[6], first compound 0.0195 µg/mL, partner 0.0625 µg/mL | 0.0567
[6], first compound 0.0195 µg/mL, partner 0.125 µg/mL | 0.0402
[6], first compound 0.0195 µg/mL, partner 2 µg/mL | 0.0358
[6], first compound 0.0195 µg/mL, partner 4 µg/mL | 0.027
[6], first compound 0.0195 µg/mL, partner 8 µg/mL | 0.0243
[6], first compound 0.039 µg/mL, partner 0.0312 µg/mL | 0.0379
[6], first compound 0.039 µg/mL, partner 0.0625 µg/mL | 0.0522
[6], first compound 0.039 µg/mL, partner 0.125 µg/mL | 0.0269
[6], first compound 0.039 µg/mL, partner 2 µg/mL | 0.038
[6], first compound 0.039 µg/mL, partner 4 µg/mL | 0.0353
[6], first compound 0.039 µg/mL, partner 8 µg/mL | 0.0328
[7], first compound 0.125 µg/mL, partner 0.005 µg/mL | 0.944
[7], first compound 0.125 µg/mL, partner 0.01 µg/mL | 0.944
[7], first compound 0.125 µg/mL, partner 0.02 µg/mL | 0.882
[7], first compound 0.125 µg/mL, partner 0.0312 µg/mL | 0.0716
[7], first compound 0.125 µg/mL, partner 0.0625 µg/mL | 0.0294
[7], first compound 0.125 µg/mL, partner 0.125 µg/mL | 0.0127
[7], first compound 0.25 µg/mL, partner 0.005 µg/mL | 0.887
[7], first compound 0.25 µg/mL, partner 0.01 µg/mL | 0.892
[7], first compound 0.25 µg/mL, partner 0.02 µg/mL | 0.812
[7], first compound 0.5 µg/mL, partner 0.005 µg/mL | 0.686
[7], first compound 0.5 µg/mL, partner 0.01 µg/mL | 0.692
[7], first compound 0.5 µg/mL, partner 0.02 µg/mL | 0.628
[7], first compound 0.5 µg/mL, partner 0.0312 µg/mL | 0.0441
[7], first compound 0.5 µg/mL, partner 0.0625 µg/mL | 0.0537
[7], first compound 0.5 µg/mL, partner 0.125 µg/mL | 0.0249

[7], first compound 0.25 µg/mL, one replicate
Conditions | fitness
partner 0.0312 µg/mL | 0.0113
partner 0.0625 µg/mL | 0.0007
partner 0.125 µg/mL | 0

— the supplement of paper PMC10627819
